Test results from publication PMC9847679, “The anti-breast cancer stem cell properties of gold(I)-non-steroidal anti-inflammatory drug complexes” (Chemical Science, 2022).

Columns and labels:
[1] = test system: HMLER-shEcad cells; assay: Monolayer cytotoxicity (MTT assay), HMLER-shEcad cells; format: cell-based, human; details: 72 h incubation, MTT
Text: (§1) Cell Lines and Cell Culture Conditions. The human mammary epithelial HMLER and HMLER-shEcad cell lines were kindly donated by Prof. R. A. Weinberg (Whitehead Institute, MIT). The human epithelial breast MCF10A, breast adenocarcinoma MDA-MB-231 and MDA-MB-468, murine epithelial breast 4T1, and embryonic kidney HEK 293 cell lines were acquired from American Type Culture Collection (ATCC, Manassas, VA, USA).
(§2) HMLER, HMLER-shEcad, and MCF10A cells were maintained in Mammary Epithelial Cell Growth Medium (MEGM) with supplements and growth factors (BPE, hydrocortisone, hEGF, insulin, and gentamicin/amphotericin-B). MDA-MB-231, MDA-MB-468, 4T1, and HEK 293 cells were maintained in Dulbecco's Modified Eagle's Medium (DMEM) supplemented with fetal bovine serum (10 %) and penicillin/streptomycin (1 %). The cells were grown at 310 K in a humidified atmosphere containing 5% CO2.
(§3) Monolayer Cytotoxicity Studies. Exponentially growing cells were seeded at a density of approximately 5 × 10^3 cells per well in 96-well flat-bottomed microplates and allowed to attach for 24 h prior to addition of compounds. Various concentrations of the test compounds (0.0004-100 μM) were added and incubated for 72 h at 37 °C (total volume 200 μl). Stock solutions of the compounds were prepared as 10 mM DMSO solutions and diluted using cell […]
media. The final concentration of DMSO in each well was ≤1 %. After 72 h, 20 μl of MTT (4 mg mL-1 in PBS) was added to each well and the plates incubated for an additional 4 h at 37 °C. The media/MTT mixture was eliminated and DMSO (100 μl per well) was added to dissolve the formazan precipitates. The optical density was measured at 550 nm using a 96-well multiscanner autoreader. Absorbance values were normalised to (DMSO-containing) control wells and plotted as concentration of test compound versus % cell viability. IC50 values were interpolated from the resulting dose dependent curves. The reported IC50 values are the average of three independent experiments (n = 18). […]
After incubation for 16 […]
h, the fluorescence of the solutions was read at 590 nm (λex = 560 nm). Viable mammospheres reduce the amount of the oxidised TOX8 form (blue) and concurrently increase the amount of the fluorescent TOX8 intermediate (red), indicating the degree of mammosphere cytotoxicity caused by the test compound. […]
Cellular Uptake. To measure the cellular uptake of 1-3 about 1 million HMLER-shEcad cells were treated with 1-3 (0.25 μM) at 37 °C for 24 h. After incubation, the media was removed, the cells were washed with PBS (2 mL × 3) and harvested. The number of cells was counted at this stage, using a haemocytometer. This mitigates any cell death induced by 1-3 at the administered concentration and experimental cell loss. The cellular pellets were dissolved in 65% HNO3 (250 µL) overnight. A cellular pellet of HMLER-shEcad cells treated with 1 was also used to determine the gold content in the nuclear, cytoplasmic and membrane fractions. The Thermo Scientific NE-PER Nuclear and Cytoplasmic Extraction Kit was used to extract and separate the nuclear, cytoplasmic and membrane fractions. The fractions were dissolved in 65% HNO3 (250 µL final volume) overnight. All samples were diluted 17-fold with water and analysed using inductively coupled plasma mass spectrometry (ICP-MS, Thermo Scientific ICAP-Qc quadrupole ICP mass spectrometer). Gold levels are expressed as mass of Au (ng) per million cells. Results are presented as the mean of four determinations for each data point.
Intracellular ROS Assay. […]

[2] = test system: HMLER-shEcad mammospheres; assay: Mammosphere viability assay (TOX8); format: cell-based, human; details: 5 days incubation
Procedure: Tumorsphere Formation and Viability Assay.
in ultralow-attachment 96-well plates (Corning) and incubated in MEGM supplemented with B27 (Invitrogen), 20 ng mL-1 EGF and 4 μg mL-1 heparin (Sigma) for 5 days. […] The viability of the mammospheres was determined by addition of a resazurin-based reagent, TOX8 (Sigma). After incubation for 16 h, the fluorescence of the solutions was read at 590 nm (λex = 560 nm). Viable mammospheres reduce the amount of the oxidised TOX8 form (blue) and concurrently increase the amount of the fluorescent TOX8 intermediate (red), indicating the degree of mammosphere cytotoxicity caused by the test compound. Fluorescence values were normalised to DMSO-containing controls and plotted as concentration of test compound versus % mammospheres viability. IC50 values were interpolated from the resulting dose dependent curves. The reported IC50 values are the average of three independent experiments, each consisting of two replicates per concentration level (overall n = 6).

[3] = test system: MDA-MB-231 cells; assay: Monolayer cytotoxicity (MTT assay), MDA-MB-231 cells; format: cell-based, human; details: 72 h incubation
Text: as §1, §2, §3
media. The final concentration of DMSO in each well was ≤1 %. […] The optical density was measured at 550 nm using a 96-well multiscanner autoreader. Absorbance values were normalised to (DMSO-containing) control wells and plotted as concentration of test compound versus % cell viability. […]
h, the fluorescence of the solutions was read at 590 nm (λex = 560 nm). […]
Cellular Uptake. […] The number of cells was counted at this stage, using a haemocytometer. […] All samples were diluted 17-fold with water and analysed using inductively coupled plasma mass spectrometry (ICP-MS, Thermo Scientific ICAP-Qc quadrupole ICP mass spectrometer). Gold levels are expressed as mass of Au (ng) per million cells. […]

[4] = Reaction with thiol-containing biomolecules (1H and 31P NMR); details: 10 mM in DMSO-d6, 37 °C, 72 h
Procedure: As the mechanism of toxicity of many gold(I) complexes is associated to their interaction with thiol groups in proteins,[23] the reaction of 1 with N-acetylcysteine (NAC) and glutathione (GSH), model thiol-containing biomolecules, was probed using ^1H and ^31P{^1H} NMR spectroscopy studies (over 72 h at 37 °C). […] The ^31P{^1H} NMR studies also indicated the immediate formation of [Au^I(NAC)(PPh3)] or [Au^I(GSH)(PPh3)] (Fig. S50–S51 ^†). [Au^I(NAC)(PPh3)] and [Au^I(GSH)(PPh3)] were independently prepared in situ by reacting [Au^I(acac)(PPh3)][58] with NAC or GSH in DMSO-d6, to confirm the abovementioned assignments.

[5] = test system: HMLER-shEcad cells; assay: FITC Annexin V-propidium iodide assay; format: cell-based, human; details: IC50 value ×2, 48 h
Procedure: Annexin V-Propidium Iodide Assay. HMLER-shEcad cells were incubated with and […]
harvested from adherent cultures by trypsinisation. The FITC Annexin V/Dead Cell Apoptosis Kit was used. The manufacture’s (Thermo Fisher Scientific) protocol was followed to carry out this experiment.
1× Annexin binding buffer (100 µL) (10 mM HEPES, 140 mM NaCl, 2.5 mM CaCl2, pH 7.4), then 5 µL FITC Annexin V and 1 µL PI (100 µg/ mL) were added to each sample and incubated at room temperature for 15 min. After which more 1× Annexin binding buffer (400 µL) was added while gently mixing. The cells were analysed using a FACSCanto II flow cytometer (BD Biosciences) (10,000 events per sample were acquired) at the University of Leicester FACS Facility. The FL1 channel was used to assess Annexin V binding and the FL2 channel was used to assess PI uptake. Cell populations were analysed using the FlowJo […]
ice-cold methanol (for 30 min), and suspended in PBS (200 μL). […]
COX-2 Inhibition Enzyme Immunoassay (EIA). […]
(ovine) Inhibitor Screening Assay (Cayman Chemicals).” The assay was performed according to the manuf acturer’s instructions using a 96-well plate set up.

With COc1ccc2c(c1)c(CC(=O)[O][Au][PH](c1ccccc1)(c1ccccc1)c1ccccc1)c(C)n2C(=O)c1ccc(Cl)cc1 [complex 1] the IC50 [1] was 56 ± 1 nM, the IC50 [2] was 2000 ± 100 nM and the IC50 [3] was 3940 ± 300 nM. For the same compound, the “reaction with stoichiometric NAC or GSH” value [4] was “The reaction occurred immediately” and the apoptosis induction [5] was “induced large populations of cells to undergo late-stage apoptosis”.
